From patent US20240343727A1, “PYRIDAZINONE OR PYRIDINONE COMPOUNDS, PREPARATION METHODS AND USES THEREOF” (InventisBio Co., Ltd., priority 2021, published 2024)

biological target: T1, PARP7 (Homo sapiens, UniProt Q7Z3E1); test: PARP7 TR-FRET assay (binding, displacement of biotinylated Probe A); conditions: 6 nM PARP7, 2 nM Probe A, 25° C., 30 min
T1 sequence (Q7Z3E1 1-657): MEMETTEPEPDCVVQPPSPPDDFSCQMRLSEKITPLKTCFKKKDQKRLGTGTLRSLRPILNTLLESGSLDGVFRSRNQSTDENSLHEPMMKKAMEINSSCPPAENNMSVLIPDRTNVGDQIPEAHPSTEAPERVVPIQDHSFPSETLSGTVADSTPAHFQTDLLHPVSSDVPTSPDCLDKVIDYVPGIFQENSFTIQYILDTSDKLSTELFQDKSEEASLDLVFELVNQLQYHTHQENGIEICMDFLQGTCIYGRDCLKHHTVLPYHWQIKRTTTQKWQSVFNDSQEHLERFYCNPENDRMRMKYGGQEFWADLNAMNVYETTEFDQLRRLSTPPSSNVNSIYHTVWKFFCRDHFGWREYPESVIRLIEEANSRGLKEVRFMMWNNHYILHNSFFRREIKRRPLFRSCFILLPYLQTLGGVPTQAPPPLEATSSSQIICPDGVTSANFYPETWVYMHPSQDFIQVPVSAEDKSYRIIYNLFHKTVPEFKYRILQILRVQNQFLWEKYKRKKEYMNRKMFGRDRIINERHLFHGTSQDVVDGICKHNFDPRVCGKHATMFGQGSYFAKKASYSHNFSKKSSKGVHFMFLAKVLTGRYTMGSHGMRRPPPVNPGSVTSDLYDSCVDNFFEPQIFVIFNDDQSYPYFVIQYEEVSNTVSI
Outline: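 Compound displacement of biotinylated Probe A (2 nM) from PARP7 (6 nM) measured by TR-FRET in HEPES pH 8.0 buffer, 30 min at 25° C. Detection used ULight-anti 6xHis (4 nM) plus Eu-streptavidin (0.25 nM) for 30 min, reading the 665/615 nm ratio. % inhibition was taken against DMSO and no-enzyme wells, and IC50 from a Hill fit.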

SMILES	IC50
O=C(CC1CN(c2cc(C(F)(F)F)c(=O)[nH]n2)c2ccccc2O1)N1CCn2c(nnc2C(F)(F)F)C1 (single isomer, unassigned) [Compound 290]	> 1000 nM
O=C(CC1CN(c2cc(C(F)(F)F)c(=O)[nH]n2)c2cc(F)ccc2O1)N1CCN(c2cnc(C(F)(F)F)cn2)CC1 (single isomer, unassigned) [Compound 292]	100 to 1000 nM
N#Cc1cnc(N2CCN(C(=O)CC3CN(c4cc(C(F)(F)F)c(=O)[nH]n4)c4cc(Cl)ccc4O3)CC2)nc1 (single isomer, unassigned) [Compound 293]	< 100 nM
N#Cc1cnc(N2CCN(C(=O)CC3CN(c4cc(C(F)(F)F)c(=O)[nH]n4)c4cc(Cl)ccc4O3)CC2)nc1 (single isomer, unassigned) [Compound 294]	100 to 1000 nM
O=C(CC1CN(c2cc(C(F)(F)F)c(=O)[nH]n2)c2ccccc2O1)N1CCN(c2ncc(Cl)cn2)CC1 (single isomer, unassigned) [Compound 295]	100 to 1000 nM
O=C(CC1CN(c2cc(C(F)(F)F)c(=O)[nH]n2)c2ccccc2O1)N1CCN(c2ncc(Cl)cn2)CC1 (single isomer, unassigned) [Compound 296]	< 100 nM
CNCc1ccc2c(c1)N(c1cc(C(F)(F)F)c(=O)[nH]n1)CC(CC(=O)N1CCN(c3ncc(C(F)(F)F)cn3)CC1)O2 (single isomer, unassigned) [Compound 297]	100 to 1000 nM
CNCc1ccc2c(c1)N(c1cc(C(F)(F)F)c(=O)[nH]n1)CC(CC(=O)N1CCN(c3ncc(C(F)(F)F)cn3)CC1)O2 (single isomer, unassigned) [Compound 298]	100 to 1000 nM
O=C(CC1CN(c2cc(C(F)(F)F)c(=O)[nH]n2)c2cc(F)ccc2O1)N1CCN(c2ccc(C3CC3)cn2)CC1 (single isomer, unassigned) [Compound 301]	> 1000 nM
COCCNC(=O)c1ccc2c(c1)N(c1cc(C(F)(F)F)c(=O)[nH]n1)CC(CC(=O)N1CCN(c3ncc(C(F)(F)F)cn3)CC1)O2 (single isomer, unassigned) [Compound 310]	< 100 nM
O=C(CC1CN(c2cc(C(F)(F)F)c(=O)[nH]n2)c2cc(F)ccc2O1)N1CCN(c2ncc(OC(F)(F)F)cn2)CC1 (single isomer, unassigned) [Compound 311]	< 100 nM
O=C(CC1CN(c2cc(C(F)(F)F)c(=O)[nH]n2)c2cc(F)ccc2O1)N1CCN(c2ncc(OC(F)(F)F)cn2)CC1 (single isomer, unassigned) [Compound 312]	100 to 1000 nM
CNC(=O)c1ccc2c(c1)N(c1cc(C(F)(F)F)c(=O)[nH]n1)CC(CC(=O)N1CCN(c3ncc(C(F)(F)F)cn3)CC1)O2 (single isomer, unassigned) [Compound 323]	< 100 nM
C[C@@H]1CN(C(=O)CC2CN(c3cc(C(F)(F)F)c(=O)[nH]n3)c3cc(F)ccc3O2)CCN1c1ncc(C#N)cn1 (single isomer, unassigned) [Compound 325]	< 100 nM
C[C@@H]1CN(C(=O)CC2CN(c3cc(C(F)(F)F)c(=O)[nH]n3)c3cc(F)ccc3O2)CCN1c1ncc(C#N)cn1 (single isomer, unassigned) [Compound 326]	100 to 1000 nM
N#Cc1ccc(N2CCN(C(=O)CC3CN(c4cc(C(F)(F)F)c(=O)[nH]n4)c4cc(C(F)F)ccc4O3)CC2)nc1 (single isomer, unassigned) [Compound 327]	< 100 nM
N#Cc1ccc(N2CCN(C(=O)CC3CN(c4cc(C(F)(F)F)c(=O)[nH]n4)c4cc(C(F)F)ccc4O3)CC2)nc1 (single isomer, unassigned) [Compound 328]	< 100 nM
C[C@@H]1CN(C(=O)CC2CN(c3cc(C(F)(F)F)c(=O)[nH]n3)c3cc(Cl)ccc3O2)CCN1c1ncc(C#N)cn1 (single isomer, unassigned) [Compound 329]	< 100 nM
C[C@@H]1CN(C(=O)CC2CN(c3cc(C(F)(F)F)c(=O)[nH]n3)c3cc(Cl)ccc3O2)CCN1c1ncc(C#N)cn1 (single isomer, unassigned) [Compound 330]	100 to 1000 nM
N#CC1(c2ccc3c(c2)N(c2cc(C(F)(F)F)c(=O)[nH]n2)CC(CC(=O)N2CCN(c4ncc(C(F)(F)F)cn4)CC2)O3)CC1 (single isomer, unassigned) [Compound 338]	< 100 nM
N#CC1(c2ccnc(N3CCN(C(=O)CC4CN(c5cc(C(F)(F)F)c(=O)[nH]n5)c5cc(F)ccc5O4)CC3)n2)CC1 (single isomer, unassigned) [Compound 343]	< 100 nM
N#CC1(c2ccnc(N3CCN(C(=O)CC4CN(c5cc(C(F)(F)F)c(=O)[nH]n5)c5cc(F)ccc5O4)CC3)n2)CC1 (single isomer, unassigned) [Compound 344]	> 1000 nM
N#CC1(c2ccnc(N3CCN(C(=O)CC4CN(c5cc(C(F)(F)F)c(=O)[nH]n5)c5cc(Cl)ccc5O4)CC3)n2)CC1 (single isomer, unassigned) [Compound 345]	> 1000 nM

SMILES	IC50
CC(C)(O)c1cnc(N2CCN(C(=O)CC3CN(c4cc(C(F)(F)F)c(=O)[nH]n4)c4cc(F)ccc4O3)CC2)nc1 (single isomer, unassigned) [Compound 348]	< 100 nM
CC(C)(O)c1cnc(N2CCN(C(=O)CC3CN(c4cc(C(F)(F)F)c(=O)[nH]n4)c4cc(F)ccc4O3)CC2)nc1 (single isomer, unassigned) [Compound 351]	< 100 nM
Cc1c(N2C[C@H](CC(=O)N3CCN(c4ncc(C(F)(F)F)cn4)CC3)O[C@H](C)C2)n[nH]c(=O)c1C(F)(F)F (stereo in doubt) [Compound 41]	< 100 nM
C[C@H]1CN(c2cc(C(F)(F)F)c(=O)[nH]n2)C[C@@H](CC(=O)N2CCN(c3ncc(C(F)(F)F)cn3)CC2)O1 (stereo in doubt) [Compound 79]	< 100 nM
C[C@H]1CN(c2n[nH]c(=O)c3cccc(F)c23)C[C@H](CC(=O)N2CCN(c3ncc(C(F)(F)F)cn3)CC2)O1 (stereo in doubt) [Compound 88]	100 to 1000 nM
C[C@@H]1CN(c2n[nH]c(=O)c3cccc(F)c23)C[C@@H](CC(=O)N2CCN(c3ncc(C(F)(F)F)cn3)CC2)O1 (stereo in doubt) [Compound 90]	100 to 1000 nM
C[C@H]1CN(c2n[nH]c(=O)c3c(F)cccc23)C[C@H](CC(=O)N2CCN(c3ncc(C(F)(F)F)cn3)CC2)O1 (stereo in doubt) [Compound 91]	100 to 1000 nM
C[C@H]1CN(c2n[nH]c(=O)c3c(F)cccc23)C[C@@H](CC(=O)N2CCN(c3ncc(C(F)(F)F)cn3)CC2)O1 (stereo in doubt) [Compound 95]	< 100 nM
C[C@@H]1CN(c2n[nH]c(=O)c3c(F)cccc23)C[C@@H](CC(=O)N2CCN(c3ncc(C(F)(F)F)cn3)CC2)O1 (stereo in doubt) [Compound 96]	100 to 1000 nM
C[C@@H]1CN(c2cc(C(F)(F)F)c(=O)[nH]n2)C[C@H](CC(=O)N2CCN(c3ncc(C(F)(F)F)cn3)CC2)O1 (stereo in doubt) [Compound 110]	100 to 1000 nM
C[C@H]1CN(c2cc(C(F)(F)F)c(=O)[nH]n2)C[C@H](CC(=O)N2CCN(c3ncc(C(F)(F)F)cn3)CC2)O1 (stereo in doubt) [Compound 111]	< 100 nM
C[C@@H]1CN(c2cc(C(F)(F)F)c(=O)[nH]n2)C[C@@H](CC(=O)N2CCN(c3ncc(C(F)(F)F)cn3)CC2)O1 (stereo in doubt) [Compound 112]	< 100 nM
C[C@@H]1CN(c2n[nH]c(=O)c3c(F)cccc23)C[C@H](CC(=O)N2CCN(c3ncc(C(F)(F)F)cn3)CC2)O1 (stereo in doubt) [Compound 118]	100 to 1000 nM
C[C@@H]1CN(c2n[nH]c(=O)c3cccc(F)c23)C[C@H](CC(=O)N2CCN(c3ncc(C(F)(F)F)cn3)CC2)O1 (stereo in doubt) [Compound 119]	> 1000 nM
C[C@H]1CN(c2n[nH]c(=O)c3cccc(F)c23)C[C@@H](CC(=O)N2CCN(c3ncc(C(F)(F)F)cn3)CC2)O1 (stereo in doubt) [Compound 120]	100 to 1000 nM
O=C(CO[C@@H]1C[C@@H](CC2CC2)Oc2c1n[nH]c(=O)c2C(F)(F)F)N1CCN(c2ncc(C(F)(F)F)cn2)CC1 (stereo in doubt) [Compound 144]	< 100 nM
O=C(CO[C@H]1C[C@H](CC2CC2)Oc2c1n[nH]c(=O)c2C(F)(F)F)N1CCN(c2ncc(C(F)(F)F)cn2)CC1 (stereo in doubt) [Compound 184]	> 1000 nM
C#Cc1c2c(n[nH]c1=O)[C@H](OCC(=O)N1CCN(c3ncc(C(F)(F)F)cn3)CC1)CCO2 [Compound 12]	< 100 nM
Cc1c(C(F)(F)F)c(Oc2cccc(C(=O)N3CCN(c4ncc(C(F)(F)F)cn4)CC3)c2)n[nH]c1=O [Compound 17]	> 1000 nM
O=C(c1cccc(Oc2n[nH]c(=O)cc2C(F)(F)F)c1)N1CCN(c2ncc(C(F)(F)F)cn2)CC1 [Compound 18]	> 1000 nM
Cc1ccc(C(=O)N2CCN(c3ncc(C(F)(F)F)cn3)CC2)cc1Oc1n[nH]c(=O)c(C(F)(F)F)c1C [Compound 19]	< 100 nM
Cc1c(Oc2cncc(C(=O)N3CCN(c4ncc(C(F)(F)F)cn4)CC3)c2)n[nH]c(=O)c1C(F)(F)F [Compound 20]	< 100 nM
Cc1c(Oc2cc(Cl)cc(C(=O)N3CCN(c4ncc(C(F)(F)F)cn4)CC3)c2)n[nH]c(=O)c1C(F)(F)F [Compound 22]	100 to 1000 nM
